According to US9409905B2, “Antibacterial compounds and methods for use” (PTC THERAPEUTICS, INC., priority 2011, dated 2016):
Values after ≈ are worked out from the molar mass of the structure shown.

Legend:
[1] = tested on: Staphylococcus aureus (S. aureus) 29213; assay: Antibacterial activity, microbroth dilution MIC (Table 1); assay type: cell-based; conditions: microbroth dilution, Gram-positive S. aureus 29213, read-out: MIC, 29213
Outline: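 Microbroth dilution was used. MIC, in μg/mL, is the lowest drug concentration preventing macroscopically visible growth under the test conditions.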

[2] = tested on: Escherichia coli (E. coli) BAS849; assay: as above; assay type: cell-based; conditions: microbroth dilution, super sensitive Gram-negative E. coli BAS849, read-out: MIC, BAS849
Outline: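 Each strain is exposed to test compound in a microbroth dilution series; visible growth is scored macroscopically, and the lowest growth-free concentration is recorded as MIC in μg/mL.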

[3] = tested on: Moraxella catarrhalis (M. catarrhalis) 25238; assay: Antibacterial activity, MIC (Table 7); assay type: cell-based
From the text: The antibacterial activity from a microbroth dilution method may be presented as the minimum inhibitory concentration (MIC in μg/mL). The MIC value is the lowest concentration of drug which prevents macroscopically visible growth under test conditions.
Antibacterial activity of test compounds against the Gram-negative bacteria Haemophilus influenzae (H. influenzae) 49247 is shown in Table 6, Moraxella catarrhalis (M. catarrhalis) 25238 is shown in Table 7 and Neisseria meningitidis (N. meningitidis) 13090 is shown in Table 8.

E. coli 25922 = assay: Antibacterial activity, microbroth dilution MIC (Table 1); assay type: cell-based, Escherichia coli; conditions: Escherichia coli; microbroth dilution; control Gram-negative E. coli 25922 strain; read-out: MIC, 25922
Outline: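 MIC (μg/mL) is taken as the lowest concentration with no macroscopically visible growth. Strains tested by microbroth dilution: Gram-positive S. aureus 29213, control Gram-negative E. coli 25922, and super-sensitive E. coli BAS849.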

[4] = tested on: Neisseria meningitidis (N. meningitidis) 13090; assay: Antibacterial activity, MIC (Table 8); assay type: cell-based
Outline: (§1)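 Broth microdilution MIC, read as the lowest drug concentration preventing macroscopically visible growth under test conditions and reported in μg/mL.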

E. coli LZ3111 = assay: Antibacterial activity, MIC, quinolone resistant strain (Table 2); assay type: cell-based; conditions: Escherichia coli, LZ3111, read-out: MIC LZ3111
Outline: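 Microbroth dilution method; MIC (μg/mL) is the lowest drug concentration preventing macroscopically visible growth under test conditions.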

K. pneumoniae MXX1232 = assay: Antibacterial activity, MIC, resistant strain (Table 4); assay type: cell-based; conditions: Klebsiella pneumoniae, MXX1232; resistant K. pneumoniae MMX1232, multi-drug resistant clinical isolate; read-out: MIC, MMX1232
Outline: (§2)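 The resistant panel comprises multi-drug resistant clinical isolates. All strains were tested by microbroth dilution, with the MIC in μg/mL taken as the lowest concentration that prevented macroscopically visible growth.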

A. baumannii MXX2240 = assay: as above; assay type: cell-based; conditions: Acinetobacter baumannii, MXX2240; resistant A. baumannii MMX2240, multi-drug resistant clinical isolate; read-out: MIC, MMX2240
Outline: as §2

[5] = tested on: Haemophilus influenzae (H. influenzae) 49247; assay: Antibacterial activity, MIC (Table 6); assay type: cell-based
Outline: as §1

[6] = tested on: Pseudomonas aeruginosa (P. aeruginosa) 27853; assay: Antibacterial activity, MIC (Table 5); assay type: cell-based; conditions: P. aeruginosa 27853, read-out: MIC, 27853
Outline: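 Activity was measured by microbroth dilution. The MIC, in μg/mL, is the lowest drug concentration that prevents macroscopically visible growth under the test conditions.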

[7] = tested on: Acinetobacter baumannii (A. baumannii) BAA747; assay: Antibacterial activity, MIC (Table 4); assay type: cell-based; conditions: A. baumannii BAA747, read-out: MIC, BAA747
Outline: as §2

[8] = tested on: Klebsiella pneumoniae (K. pneumoniae) 35657; assay: Antibacterial activity, MIC (Table 4); assay type: cell-based; conditions: K. pneumoniae 35657, read-out: MIC, 35657
Outline: as §2

E. coli ELZ4000 = assay: Antibacterial activity, MIC, multi-drug resistant clinical isolate (Table 3); assay type: cell-based; conditions: Escherichia coli, ELZ4000, read-out: MIC ELZ4000
Outline: (§3)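 Broth microdilution assay; MIC reported in μg/mL as the lowest drug concentration preventing macroscopically visible growth under test conditions.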

E. coli ELZ4251 = assay: as above; assay type: cell-based; conditions: Escherichia coli
Outline: as §3

SMILES | MIC [1] [µg/mL] | MIC [2] [µg/mL] | MIC [3] [µg/mL] | MIC (E. coli 25922) [µg/mL] | MIC [4] [µg/mL] | MIC (E. coli LZ3111) [µg/mL] | MIC (K. pneumoniae MXX1232) [µg/mL] | MIC (A. baumannii MXX2240) [µg/mL] | MIC [5] [µg/mL] | MIC [6] [µg/mL] | MIC [7] [µg/mL] | MIC [8] [µg/mL] | MIC (E. coli ELZ4000) [µg/mL] | MIC (E. coli ELZ4251) [µg/mL]
CCc1c(-c2ccc3c(c2)cc(CN2CCC(NC)C2)n3C)[nH]c(=O)c(C(=O)O)c1O (stereo not drawn) [Cpd 181, 5-ethyl-4-hydroxy-6-(1-methyl-2-((3-(methylamino)pyrrolidin-1-yl)methyl)-1H-indol-5-yl)-2-oxo-1,2-dihydropyridine-3-carboxylic acid] | 12.5 to 150 (≈ 29.4 to 353 µM) | < 1 | 1 to 3.5 (≈ 2.36 to 8.24 µM) | 1 to 3.5 (≈ 2.36 to 8.24 µM) | 1 to 3.5 (≈ 2.36 to 8.24 µM) | 1 to 3.5 (≈ 2.36 to 8.24 µM) | 12.5 to 150 (≈ 29.4 to 353 µM) | 12.5 to 150 (≈ 29.4 to 353 µM) | 1 to 3.5 (≈ 2.36 to 8.24 µM) | 12.5 to 150 (≈ 29.4 to 353 µM) | 3.5 to 12.5 (≈ 8.24 to 29.4 µM) | 1 to 3.5 (≈ 2.36 to 8.24 µM) | 12.5 to 150 (≈ 29.4 to 353 µM) | 12.5 to 150 (≈ 29.4 to 353 µM)
CCc1c(-c2ccc3c(c2)cc(CN2CCCCC2)n3C)[nH]c(=O)c(C(=O)O)c1O [Cpd 192, 5-ethyl-4-hydroxy-6-(1-methyl-2-(piperidin-1-ylmethyl)-1H-indol-5-yl)-2-oxo-1,2-dihydropyridine-3-carboxylic acid] | 3.5 to 12.5 (≈ 8.55 to 30.5 µM) | < 1 | < 1 | < 1 | < 1 | 1 to 3.5 (≈ 2.44 to 8.55 µM) | 12.5 to 150 (≈ 30.5 to 366 µM) | 1 to 3.5 (≈ 2.44 to 8.55 µM) | < 1 | 12.5 to 150 (≈ 30.5 to 366 µM) | 1 to 3.5 (≈ 2.44 to 8.55 µM) | 1 to 3.5 (≈ 2.44 to 8.55 µM) | 12.5 to 150 (≈ 30.5 to 366 µM) | 3.5 to 12.5 (≈ 8.55 to 30.5 µM)
CCc1c(-c2ccc3c(c2)cc(CN2CCCC2C)n3C)[nH]c(=O)c(C(=O)O)c1O (stereo not drawn) [Cpd 173, 5-ethyl-4-hydroxy-6-(1-methyl-2-((2-methylpyrrolidin-1-yl)methyl)-1H-indol-5-yl)-2-oxo-1,2-dihydropyridine-3-carboxylic acid] | 3.5 to 12.5 (≈ 8.55 to 30.5 µM) | < 1 | < 1 | < 1 | < 1 | 3.5 to 12.5 (≈ 8.55 to 30.5 µM) | 12.5 to 150 (≈ 30.5 to 366 µM) | 12.5 to 150 (≈ 30.5 to 366 µM) | < 1 | 12.5 to 150 (≈ 30.5 to 366 µM) | 1 to 3.5 (≈ 2.44 to 8.55 µM) | 1 to 3.5 (≈ 2.44 to 8.55 µM) | 12.5 to 150 (≈ 30.5 to 366 µM) | 3.5 to 12.5 (≈ 8.55 to 30.5 µM)
CCc1c(-c2ccc3c(c2)cc(CNC(C)C)n3C)[nH]c(=O)c(C(=O)O)c1O [Cpd 199, 5-ethyl-4-hydroxy-6-(2-((isopropylamino)methyl)-1-methyl-1H-indol-5-yl)-2-oxo-1,2-dihydropyridine-3-carboxylic acid] | 3.5 to 12.5 (≈ 9.13 to 32.6 µM) | < 1 | < 1 | < 1 | < 1 | 1 to 3.5 (≈ 2.61 to 9.13 µM) | 12.5 to 150 (≈ 32.6 to 391 µM) | 1 to 3.5 (≈ 2.61 to 9.13 µM) | < 1 | 3.5 to 12.5 (≈ 9.13 to 32.6 µM) | < 1 | < 1 | 3.5 to 12.5 (≈ 9.13 to 32.6 µM) | 3.5 to 12.5 (≈ 9.13 to 32.6 µM)
CCc1c(-c2ccc3c(c2)cc(CN2CCC(N(C)C)C2)n3C)[nH]c(=O)c(C(=O)O)c1O (stereo not drawn) [Cpd 200, 6-(2-((3-(dimethylamino)pyrrolidin-1-yl)methyl)-1-methyl-1H-indol-5-yl)-5-ethyl-4-hydroxy-2-oxo-1,2-dihydropyridine-3-carboxylic acid] | 3.5 to 12.5 (≈ 7.98 to 28.5 µM) | < 1 | 1 to 3.5 (≈ 2.28 to 7.98 µM) | 1 to 3.5 (≈ 2.28 to 7.98 µM) | < 1 | 1 to 3.5 (≈ 2.28 to 7.98 µM) | 12.5 to 150 (≈ 28.5 to 342 µM) | 12.5 to 150 (≈ 28.5 to 342 µM) | 1 to 3.5 (≈ 2.28 to 7.98 µM) | 12.5 to 150 (≈ 28.5 to 342 µM) | 3.5 to 12.5 (≈ 7.98 to 28.5 µM) | 12.5 to 150 (≈ 28.5 to 342 µM) | 12.5 to 150 (≈ 28.5 to 342 µM) | 12.5 to 150 (≈ 28.5 to 342 µM)
CCc1c(-c2ccc3c(c2)cc(CN2CC(N(C)C)C2)n3C)[nH]c(=O)c(C(=O)O)c1O [Cpd 189, 6-(2-((3-(dimethylamino)azetidin-1-yl)methyl)-1-methyl-1H-indol-5-yl)-5-ethyl-4-hydroxy-2-oxo-1,2-dihydropyridine-3-carboxylic acid] | 3.5 to 12.5 (≈ 8.24 to 29.4 µM) | < 1 | < 1 | 1 to 3.5 (≈ 2.36 to 8.24 µM) | < 1 | 3.5 to 12.5 (≈ 8.24 to 29.4 µM) | 12.5 to 150 (≈ 29.4 to 353 µM) | 12.5 to 150 (≈ 29.4 to 353 µM) | < 1 | 12.5 to 150 (≈ 29.4 to 353 µM) | 1 to 3.5 (≈ 2.36 to 8.24 µM) | 1 to 3.5 (≈ 2.36 to 8.24 µM) | 12.5 to 150 (≈ 29.4 to 353 µM) | 3.5 to 12.5 (≈ 8.24 to 29.4 µM)
